Measured values from patent publication US20170333390A1, “PHYTOCHEMICAL COMPOSITIONS INCLUDING SESAMIN FOR ANTI-INFLAMMATORY, ANTI-CYTOKINE STORM, AND OTHER USES” (CHIANG MAI UNIVERSITY, priority 2009, published 2017).

Tested on: IL-1 released by LPS induced peripheral blood mononuclear cells (PBMCs)
Experiment: Quantity of IL-1 released by LPS induced PBMCs (ELISA)
Type: cell-based
Settings: LPS 20 ng/ml
Description: Experiments were conducted to evaluate the effect of particular phytochemical compositions provided by the present disclosure on quantity of IL-1 released by specified cells found within a body of a living organism. Cells used for the experiment described in this example are LPS induced peripheral blood mononuclear cells (PBMCs). It is understood by a person of ordinary skill in the art that the PBMCs may be substituted for other immune cells found within the body. It is also understood by a person having ordinary skill in the art that other inducing substances or chemicals besides LPS, for example viral antigens, may also be used for inducing the PBMCs.
To conduct the experiments of example two, PBMCs were isolated and prepared using isolation techniques or methods known to a person of ordinary skill in the art. An exemplary method or technique is the differential density gradient centrifugation technique, the steps or process steps of which are known to a person of ordinary skill in the art. In addition, LPS can be obtained from a commercial source, for example Sigma-Aldrich Co.
The PBMCs are cultured in 10% fetal calf serum in RPMI1640 medium. Seven cultures of PBMCs, i.e. culture 1 to culture 7, were prepared. The contents of each of cultures 1 to 7 are as follows: • (i) Culture 1: First control culture. Includes a predetermined volume of PBMCs (1×10^5 PBMCs/culture); • (ii) Culture 2: Second control culture. […]
After a predetermined time period, quantity of IL-1 in each of cultures 1 to 7 was quantified using the ELISA technique (e.g., Biotrak Easy ELISA Aersham). The quantity of IL-1 detected by the ELISA technique in each of cultures 1 to 7 reflects the quantity of IL-1 released by the PBMCs of that culture.

Compound: c1cc2c(cc1[C@H]1OC[C@H]3[C@@H]1CO[C@@H]3c1ccc3c(c1)OCO3)OCO2 [sesamin]
- decrease in quantity of IL-1 (0.1 uM sesamin (culture 3), compared to control culture 1, 24 hours): approximately 5%
- decrease in quantity of IL-1 (0.5 uM sesamin (culture 4), compared to control culture 1, 24 hours): approximately 5%
- decrease in quantity of IL-1 (10 uM sesamin (culture 7), compared to control culture 2, 24 hours): approximately 35%
